Data reported in patent publication US11000033B2, “Ketone or oxime compound, and herbicide” (NISSAN CHEMICAL CORPORATION, priority 2014, dated 2021).

Tests used:
Assay type in all cases: in vivo
[1] = test system: Echinochloa oryzacola Vasing.; assay: Test Example 1: herbicidal activity, application before weed generation in submerged conditions (symbol A); conditions: application herbicide amount 320 g/ha
In short: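 Weeds are sown into submerged alluvial soil alongside transplanted 2.5-leaf rice, and the compound, as an emulsion diluted to a set rate, is applied onto the water before emergence. Rating on the 0–5 herbicidal-ratio scale follows 3 weeks of greenhouse growth at 25–30 °C.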

Digitaria ciliaris = assay: Test Example 5: herbicidal effect by foliage application, plastic box (symbol F); conditions: 320 g/ha, 3 weeks after application
In short: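 Visual herbicidal score, taken three weeks post-application, of seedlings sprayed on the foliage with water-diluted emulsion at a predetermined amount; plants were 14 days old, greenhouse-raised at 25° C. to 30° C.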

Setaria viridis = assay: Test Example 4: herbicidal effect by soil treatment (symbol G); conditions: application herbicide amount 320 g/ha
In short: (§1)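 Seeds were sown in sterilized diluvial soil, covered with about 1.5 cm of soil, and the soil surface was sprayed with a water-diluted emulsion of the compound at a predetermined rate. Plants grew in a greenhouse at 25° C. to 30° C.; effects were scored visually 3 weeks after application.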

transplanted rice plant = assay: Test Example 1: effect on crop, application before weed generation in submerged conditions (symbol a); conditions: application herbicide amount 320 g/ha
In short: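 Alluvial soil pots flooded to 4 cm water, sown with Echinochloa oryzacola, Scirpus juncoides and Monochoria vaginalis, then transplanted with 2.5 leaf stage rice seedlings; pre-emergence application. Greenhouse 25° C. to 30° C.; scored 0–5 by herbicidal ratio 3 weeks after application.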

Monochoria vaginalis = assay: Test Example 2: herbicidal activity, application during weed generation in submerged conditions (symbol C); conditions: Table 23; application herbicide amount 320 g/ha; grade 0-5 by criteria of Test Example 1
In short: (§2)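 Treatment timing was the one- to two-leaf stage, with diluted emulsifiable compound dropped onto the paddy water (depth 4 cm) over alluvial soil. All three species grew from a mixed sowing in a 25° C. to 30° C. greenhouse. Injury was judged by eye 3 weeks on.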

rapeseed = assay: Test Example 4: effect on crop by soil treatment (symbol g); conditions: application herbicide amount 320 g/ha
In short: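 Seeds were sown in spots on sterilized diluvial soil in a plastic box and covered with about 1.5 cm of soil. Plants were then grown in a greenhouse at 25° C. to 30° C.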

[2] = test system: Echinochloa oryzacola Vasing.; assay: Test Example 2: herbicidal activity, application during weed generation in submerged conditions (symbol A); conditions: Table 23; application herbicide amount 320 g/ha; grade 0-5 by criteria of Test Example 1
In short: as §2

wheat = assay: Test Example 5: effect on crop by foliage application, plastic box (symbol e); conditions: 320 g/ha, 3 weeks after application
In short: (§3)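 Plants were raised from seed in a greenhouse (25° C. to 30° C.) after sowing in a plastic box of sterilized diluvial soil.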

corn = assay: Test Example 5: effect on crop by foliage application, plastic box (symbol c); conditions: 320 g/ha, 3 weeks after application
In short: as §3

Avena fatua = assay: Test Example 4: herbicidal effect by soil treatment (symbol I); conditions: application herbicide amount 320 g/ha
In short: as §1

[3] = test system: directly sowed rice plant; assay: Test Example 3: effect on crop by foliage application, Wagner pot (symbol b); conditions: application herbicide amount 320 g/ha
In short: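 Wagner pot (1/10000 are), alluvial soil, submerged 0.1–0.5 cm; sown E. crus-galli var. crus-galli, L. chinensis, C. difformis, rice; greenhouse 25–30 °C.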

| SMILES | Herbicidal effect grade, A: Echinochloa oryzacola Vasing. [1] | F: Digitaria ciliaris, herbicidal effect grade (Digitaria ciliaris) | G: Setaria viridis, herbicidal effect grade (Setaria viridis) | Effect grade on crop, a: transplanted rice plant (transplanted rice plant) | Herbicidal effect grade, C: Monochoria vaginalis (Monochoria vaginalis) | g: rapeseed, effect on crop grade (rapeseed) | Herbicidal effect grade, A: Echinochloa oryzacola Vasing. [2] | e: wheat, effect on crop grade (wheat) | c: corn, effect on crop grade (corn) | I: Avena fatua, herbicidal effect grade (Avena fatua) | effect on crop b (directly sowed rice plant), grade 0-5 [3] |
| --- | --- | --- | --- | --- | --- | --- | --- | --- | --- | --- | --- |
| CCOC(=O)C(C(=O)C(C)C)C1CC(O)=C(c2c(C)cc(C)cc2C)C1=O (stereo not drawn) [2-009] | 0 (Herbicidal ratio of 5% or lower (almost no effect)) | 0 (Herbicidal ratio of 5% or lower (almost no effect)) | 0 (Herbicidal ratio of 5% or lower (almost no effect)) | 0 (Herbicidal ratio of 5% or lower (almost no effect)) | 0 (Herbicidal ratio of 5% or lower (almost no effect)) | 0 (Herbicidal ratio of 5% or lower (almost no effect)) | 0 (Herbicidal ratio of 5% or lower (almost no effect)) | 0 (Herbicidal ratio of 5% or lower (almost no effect)) | 0 (Herbicidal ratio of 5% or lower (almost no effect)) | 0 (Herbicidal ratio of 5% or lower (almost no effect)) | 1 (Herbicidal ratio of 5% or higher and lower than 20%) |
| CCOC(=O)C(C(=O)C(F)(F)F)C1CC(O)=C(c2c(C)cc(C)cc2C)C1=O (stereo not drawn) [2-010] | 0 (Herbicidal ratio of 5% or lower (almost no effect)) | 0 (Herbicidal ratio of 5% or lower (almost no effect)) | 0 (Herbicidal ratio of 5% or lower (almost no effect)) | 0 (Herbicidal ratio of 5% or lower (almost no effect)) | 0 (Herbicidal ratio of 5% or lower (almost no effect)) | 0 (Herbicidal ratio of 5% or lower (almost no effect)) | 0 (Herbicidal ratio of 5% or lower (almost no effect)) | 0 (Herbicidal ratio of 5% or lower (almost no effect)) | 0 (Herbicidal ratio of 5% or lower (almost no effect)) | 0 (Herbicidal ratio of 5% or lower (almost no effect)) | 1 (Herbicidal ratio of 5% or higher and lower than 20%) |
| CCOC(=O)C(C(=O)Cc1ccccc1)C1CC(O)=C(c2c(C)cc(C)cc2C)C1=O (stereo not drawn) [2-011] | 0 (Herbicidal ratio of 5% or lower (almost no effect)) | 0 (Herbicidal ratio of 5% or lower (almost no effect)) | 0 (Herbicidal ratio of 5% or lower (almost no effect)) | 0 (Herbicidal ratio of 5% or lower (almost no effect)) | 0 (Herbicidal ratio of 5% or lower (almost no effect)) | 0 (Herbicidal ratio of 5% or lower (almost no effect)) | 0 (Herbicidal ratio of 5% or lower (almost no effect)) | 0 (Herbicidal ratio of 5% or lower (almost no effect)) | 0 (Herbicidal ratio of 5% or lower (almost no effect)) | 0 (Herbicidal ratio of 5% or lower (almost no effect)) | 0 (Herbicidal ratio of 5% or lower (almost no effect)) |
